Measurements: US20260166097A1, “METHODS AND COMPOSITIONS CONCERNING BACTEROIDES OVATUS” (BOARD OF REGENTS, THE UNIVERSITY OF TEXAS SYSTEM, priority 2022, published 2026)

What was measured:
steroid-refractory GVHD = conditions: human, in vivo
Description: The inventors examined patient antibiotic treatment histories during the period from allo-HSCT to the onset of aGI-GVHD and looked for associations between treatment with various antibiotic classes and steroid response for GVHD (FIG. 3A). In our institution, quinolone, cephalosporine, carbapenem and intravenous vancomycin were frequently used in our cohort (FIG. 3B).
A total of 37 aGI-GVHD patients who underwent allo-HSCT during 2017 to 2019 at MD Anderson Cancer Center provided stool samples for the biorepository, and these patient stool samples were analyzed retrospectively as a discovery cohort. Acute GVHD was diagnosed by clinical and/or pathological findings and graded according to standard criteria^40. […] The inventors determined treatment response as previously reported^19: briefly, a lack of response on the basis of organ assessment after at least 3 days of high-dose systemic glucocorticoid therapy; a lack of improvement after 7 days; or treatment failure during steroid tapering or an inability to taper the dose to <0.5 mg/kg/day of methylprednisolone. […] As another cohort, a total of 16 aGI-GVHD patients who underwent allo-HSCT during 2017 to 2020 at MD Anderson Cancer Center provided stool samples collected on day 14 after allo-HSCT for the biorepository, and these patient stool samples were analyzed retrospectively. […]

allo-HSCT mice = conditions: cited from earlier work

With `CCCCCCCCCC(=O)N[C@@H](Cc1c[nH]c2ccccc12)C(=O)N[C@H](CC(N)=O)C(=O)N[C@@H](CC(=O)O)C(=O)N[C@@H]1C(=O)NCC(=O)N[C@@H](CCCN)C(=O)N[C@@H](CC(=O)O)C(=O)N[C@H](C)C(=O)N[C@@H](CC(=O)O)C(=O)NCC(=O)N[C@H](CO)C(=O)N[C@@H]([C@H](C)CC(=O)O)C(=O)N[C@@H](CC(=O)c2ccccc2N)C(=O)O[C@@H]1C` [daptomycin] the “Association of antibiotic exposure with steroid-refractory GVHD” value (steroid-refractory GVHD) was “significantly associated with steroid-refractory GVHD”.

For `C[C@@H](O)[C@H]1C(=O)N2C(C(=O)O)=C(S[C@@H]3CN[C@H](C(=O)N(C)C)C3)[C@H](C)[C@H]12` [meropenem], the “Colonic GVHD severity” value (allo-HSCT mice; allo-HSCT mice treated with meropenem in drinking water compared to mice not treated) is given as “aggravated colonic GVHD”.

For `O=C[C@H](O)[C@@H](O)[C@H](O)CO` [xylose], the GVHD severity (allo-HSCT mice; supplementation in meropenem-treated allogeneic mice) is listed as “ameliorates GVHD severity”.
